Consider one compound from patent publication US20050272707A1, “Method for preventing or reducing secondary fractures after hip fracture” (priority 2002, published 2005).

The subject of data set [1] is subsequent osteoporotic fractures after hip fracture. Nature of the data set: placebo-controlled study of intravenous zoledronic acid in preventing subsequent osteoporotic fractures after a hip fracture. Format: in vivo, human patients. Particulars: patients after recent surgical repair of hip fracture; 5 mg i.v. once per year plus vitamin D and calcium vs vitamin D and calcium alone; 12 and 24 months.
Text: “A Multinational, multicenter, double-blind, randomized, placebo-controlled, parallel-group study assessing the efficacy of intravenous zoledronic acid in preventing subsequent osteoporotic fractures after a hip fracture” is undertaken.
This will be a multicenter, randomized, double-blind, placebo-controlled, parallel group trial in men and women. Patients undergoing recent surgical repair of a low-trauma hip fracture will be eligible for enrollment. There will be at least 3 study contacts with patients after randomization within the first 24 months. Patients will have additional visits annually until 211 patients have reached the primary endpoint. The final visit for patients will be contingent on when this endpoint is achieved. Once the endpoint is achieved all patients will need to come in for a final visit. The final visit will be no less than 30 days from the patient's last dose of study medication or no more than 90 days after the day 211 patients have reached the primary endpoint. […]
The primary efficacy endpoint is time to first clinical fracture. Between treatment differences will be evaluated using a log-rank test to compare the time to clinical fracture between the two treatment groups. […]

Data set [2] in a line: stability of diluted infusion solution. The format is physicochemical. Particulars: diluted with infusion media, 2-8° C.
Experimental: The cumulative time between dilution with infusion media, storage in a refrigerator and end of administration must not be longer than 24 hours. Ideally, diluted zoledronic acid solutions should be used immediately. However, if diluted zoledronic acid solutions cannot be used immediately, the solutions must be refrigerated at temperatures between 2-8° C. Before administration, the solution should be allowed to slowly warm to room temperature again.
The test system of data set [3] is bone resorption. Particulars: variety of assays of bone metabolism; cited from earlier work.
The test system of data set [4] is bone resorption. Particulars: cited from earlier work.

Entries after “also recorded” stand apart in the source; their conditions may differ.

As to `O=P(O)(O)C(O)(Cn1ccnc1)P(=O)(O)O` [zoledronic acid, 1-hydroxy-2-(imidazol-1-yl)ethane-1,1-diphosphonic acid], in data set [1], the “rate of subsequent (secondary) osteoporotic fractures” value is given as “significant reduction in secondary osteoporotic fractures; also recorded: significantly reduces the rate of all subsequent osteoporotic skeletal fractures”. Further, the “stability of diluted infusion solutions” value in data set [2] was “at least 24 hours”. Moreover, the “concentrations at which inhibition of bone resorption in vitro was demonstrated” value in the data set with bone resorption [3] is 0.3 to 30 nM. For the same compound, the “untoward effects on bone formation or mineralization” value in the data set with bone resorption [4] (at 0.3-30 nM in vitro and 0.3-30 μg/kg in vivo) is on record as “without exerting any untoward effects on either bone formation or mineralization”. Further, in the data set on bone resorption [4] (in vivo), the “doses at which inhibition of bone resorption in vivo was demonstrated” value is 0.3 to 30 µg/kg.
